Assay results: patent US7897772B2, “Acid addition salt of irinotecan” (priority 2004, dated 2011)
Counter-ions that a name gives are not always drawn.

Key:
[1] = Dissolution of irinotecan acid addition salts in water at 100 mg/mL at room temperature and state of the solution after 6 days of stirring (Example 1); type: physicochemical; details: for Dissolution of the salt in water at room temperature: salt content adjusted to 100 mg/mL, no heating; for State of the Solution after Day 6: 100 mg/mL aqueous solution, membrane-filtered, stirred at room temperature (25° C.) for 6 days, visually observed
Description: To an aqueous suspension of irinotecan (1-ethyl-10-[4-(1-piperidino)-1-piperidino]carbonyloxycamptothecin) produced through the method disclosed in Patent Document 1, each acid species was added, to thereby produce a corresponding irinotecan acid addition salt. The irinotecan acid addition salt content was adjusted to 100 mg/mL. […] Each of the aqueous solutions employing sulfuric acid, phosphoric acid methanesulfonic acid, citric acid, maleic acid, and succinic acid, respectively, was filtered by a membrane filter, and the filtrate was stirred at room temperature (25° C.). After continuous stirring for 6 days, the aqueous solution was visually observed so as to evaluate the state of the solution.

[2] = Dissolution of 100 mg/mL salt suspensions on heating and later crystal deposition at 25° C. (Example 2); type: physicochemical; details: 100 mg/mL, stirred at 100° C. for 30 minutes
Description: The thus-produced irinotecan nitric acid addition salt solution was stirred at 25° C. After stirring of the solution for about 42 hours, crystals of the irinotecan nitric acid addition salt were deposited.

[3] = Three-month room-temperature storage of 20, 30 and 40 mg/mL aqueous solutions, visual observation (Example 5); type: physicochemical; details: three months
From the text: The filtrate was allowed to stand at room temperature for three months, and the aqueous solution after storage was visually observed so as to evaluate the solution state.

[4] = Peroral absorbability in beagles: plasma irinotecan level and pharmacokinetic analysis (Example 6); type: in vivo
From the text: To each beagle, a solid chow (about 350 g) was fed once a day at around 3 p.m., and the unconsumed chow was removed at around 9 a.m. on the following day, except that on the day before the day of administration the unconsumed chow was removed about two hours after feeding. On the day of administration, blood was drawn three hours after administration and the chow was fed after blood collection. On the day after the day of administration, the unconsumed chow was removed at 9 a.m.
After administration, tap water (about 20 mL) was fed to the mouth of the beagle by use of an injection syringe.
The thus-collected blood samples were dispensed into 1.5-mL tubes, to which heparin sodium (20 μL, 20 units) had been added in advance and which had been dried under nitrogen flow (tubes employed for the first administration were not dried). The samples were centrifuged (4° C., about 13,000×g, one minute) to thereby obtain plasma.
The lower quantification limit was […] plasma.
Non-compartmental analysis of the obtained data was performed by use of a WinNonlin Ver4.1. Data of the following pharmacokinetic parameters were obtained.
Final phase half-time (T1/2),
Time to reach maximum plasma level (Tmax),
Maximum plasma level (Cmax),
Area under time-level curve to infinite time (AUC0-inf),
Bioavailability (BA), wherein
Mean absorption time (MAT), wherein
MAT(h)=(mean residence time (MRT0-inf) after oral administration)−(mean residence time (MRT0-inf) after intravenous injection).

[5] = peroral capsule, 10 mg/kg as irinotecan, 20 min after administration
[6] = peroral, 10 mg/kg as irinotecan
[7] = peroral, 10 mg/kg as irinotecan, mean ± SD (number of samples in parentheses), 10 mg/kg
[8] = peroral, 10 mg/kg as irinotecan, mean ± SD (number of samples in parentheses), listed as irinotecan methanesulfonic acid addition salt, 10 mg/kg
[9] = peroral, 10 mg/kg as irinotecan, mean ± SD (number of samples in parentheses), listed as irinotecan sulfuric acid addition salt, 10 mg/kg

SMILES: CCc1c2c(nc3ccc(OC(=O)N4CCC(N5CCCCC5)CC4)cc13)-c1cc3c(c(=O)n1C2)COC(=O)[C@]3(O)CC [Irinotecan acetic acid addition salt, reference compound]
- Dissolution of the salt in water at room temperature ([1]; listed as acetic acid): not dissolved in water at room temperature
- Dissolution on heating [2]: maintained undissolved

SMILES: CCc1c2c(nc3ccc(OC(=O)N4CCC(N5CCCCC5)CC4)cc13)-c1cc3c(c(=O)n1C2)COC(=O)C3(O)CC.O=S(=O)(O)O (stereo not drawn) [Sulfuric acid addition salt (2), irinotecan sulfuric acid salt]
- Solution state after storage ([3]; 20 mg/mL aqueous solution): −
- Solution state after storage ([3]; 30 mg/mL aqueous solution): −
- Solution state after storage ([3]; 40 mg/mL aqueous solution): −

SMILES: CCc1c2c(nc3ccc(OC(=O)N4CCC(N5CCCCC5)CC4)cc13)-c1cc3c(c(=O)n1C2)COC(=O)[C@]3(O)CC [Irinotecan phosphoric acid addition salt, irinotecan phosphoric acid salt]
- Dissolution of the salt in water at room temperature ([1]; listed as phosphoric acid): dissolved in water at room temperature

SMILES: CCc1c2c(nc3ccc(OC(=O)N4CCC(N5CCCCC5)CC4)cc13)-c1cc3c(c(=O)n1C2)COC(=O)[C@]3(O)CC [Irinotecan citric acid addition salt, irinotecan citric acid salt]
- State of the Solution after Day 6 [1]: No crystal deposited
- Dissolution of the salt in water at room temperature ([1]; listed as citric acid): dissolved in water at room temperature

SMILES: CCc1c2c(nc3ccc(OC(=O)N4CCC(N5CCCCC5)CC4)cc13)-c1cc3c(c(=O)n1C2)COC(=O)[C@]3(O)CC [Irinotecan (7-ethyl-10-[4-(1-piperidino)-1-piperidino]carboxyoxycamptothecin) hydrochloride, reference compound]
- concentration at 3 h ([4]; male, beagle, dog, plasma, oral, 10 mg/kg, peroral, 10 mg/kg as irinotecan, 3 h, mean (n=6) ± SD): 2010 ± 450 ng/mL
- concentration at 4 h ([4]; male, beagle, dog, plasma, oral, 10 mg/kg, peroral, 10 mg/kg as irinotecan, 4 h, mean (n=6) ± SD): 1620 ± 390 ng/mL
- concentration at 6 h ([4]; male, beagle, dog, plasma, oral, 10 mg/kg, peroral, 10 mg/kg as irinotecan, 6 h, mean (n=6) ± SD): 947 ± 363 ng/mL
- concentration at 8 h ([4]; male, beagle, dog, plasma, oral, 10 mg/kg, peroral, 10 mg/kg as irinotecan, 8 h, mean (n=6) ± SD): 538 ± 264 ng/mL
- concentration at 12 h ([4]; male, beagle, dog, plasma, oral, 10 mg/kg, peroral, 10 mg/kg as irinotecan, 12 h, mean (n=6) ± SD): 179 ± 138 ng/mL
- AUC(0-inf) ([4]; male, beagle, dog, plasma, po, 10 mg/kg, peroral, 10 mg/kg as irinotecan, mean ± SD (number of samples in parentheses), read-out: AUC0-inf (area under time-level curve to infinite time)): 11200 ng·h/mL
- Cmax ([4]; male, beagle, dog, plasma, po, 10 mg/kg, peroral, 10 mg/kg as irinotecan, mean ± SD (number of samples in parentheses), read-out: Cmax (maximum plasma level)): 2030 ng/mL
- Tmax ([4]; male, beagle, dog, plasma, po, 10 mg/kg, peroral, 10 mg/kg as irinotecan, mean ± SD (number of samples in parentheses), read-out: Tmax (time to reach maximum plasma level)): 2.83 ± 0.41 h
- BA (bioavailability) ([4]; peroral 10 mg/kg as irinotecan, AUC0-inf oral ÷ AUC0-inf intravenous × 100, listed as irinotecan hydrochloric acid addition salt, hydrochloride): 48.80%
- Plasma irinotecan level (no mean given) ([4]; peroral capsule, 10 mg/kg as irinotecan, 10 min after administration, hydrochloride, 10 mg/kg): —^b) (≧3 Beagles of a group consisting of six beagles exhibited a plasma level of ≦5 ng/mL.)
- Plasma irinotecan level (no mean given) [4, 5]: — (≧3 Beagles of a group consisting of six beagles exhibited a plasma level of ≦5 ng/mL.)
- Dissolution of the salt in water at room temperature ([1]; listed as hydrochloric acid, hydrochloride): not dissolved in water at room temperature

SMILES: CCc1c2c(nc3ccc(OC(=O)N4CCC(N5CCCCC5)CC4)cc13)-c1cc3c(c(=O)n1C2)COC(=O)[C@]3(O)CC.O=P(O)(O)O [Phosphoric acid addition salt (2), irinotecan phosphoric acid salt]
- Solution state after storage ([3]; 20 mg/mL aqueous solution): −
- Solution state after storage ([3]; 30 mg/mL aqueous solution): −
- Solution state after storage ([3]; 40 mg/mL aqueous solution): −

SMILES: CCc1c2c(nc3ccc(OC(=O)N4CCC(N5CCCCC5)CC4)cc13)-c1cc3c(c(=O)n1C2)COC(=O)[C@]3(O)CC [Irinotecan succinic acid addition salt, irinotecan succinic acid salt]
- Dissolution of the salt in water at room temperature ([1]; listed as succinic acid): dissolved in water at room temperature

SMILES: CCc1c2c(nc3ccc(OC(=O)N4CCC(N5CCCCC5)CC4)cc13)-c1cc3c(c(=O)n1C2)COC(=O)[C@]3(O)CC [Irinotecan methanesulfonic acid addition salt] [irinotecan methanesulfonic acid salt]
- Plasma irinotecan level (no mean given) ([4]; peroral capsule, 10 mg/kg as irinotecan, 10 min after administration, 10 mg/kg): — (≧3 Beagles of a group consisting of six beagles exhibited a plasma level of ≦5 ng/mL.)
- Plasma irinotecan level (no mean given) [4, 5]: — (≧3 Beagles of a group consisting of six beagles exhibited a plasma level of ≦5 ng/mL.)
- Time after administration at which the plasma level reached the maximum (mean profile, text) [4, 6]: two
- AUC0-inf (area under time-level curve to infinite time) [4, 7]: 17.58 ± 2.08(5)^$ μg · h/mL
- Tmax (time to reach maximum plasma level) [4, 7]: 2.17 ± 0.41(6) h
- AUC0-inf (area under time-level curve to infinite time) [4, 8]: 17.68 µg·h/mL
- Cmax (maximum plasma level) [4, 8]: 3470 ng/mL
- State of the Solution after Day 6 [1]: No crystal deposited
- Dissolution of the salt in water at room temperature [1]: dissolved in water at room temperature

SMILES: CCc1c2c(nc3ccc(OC(=O)N4CCC(N5CCCCC5)CC4)cc13)-c1cc3c(c(=O)n1C2)COC(=O)[C@]3(O)CC.O=[N+]([O-])O [Nitric acid addition salt (2), irinotecan nitric acid salt]
- Solution state after storage ([3]; 20 mg/mL aqueous solution): −
- Solution state after storage ([3]; 30 mg/mL aqueous solution): −
- Solution state after storage ([3]; 40 mg/mL aqueous solution): −

SMILES: CCc1c2c(nc3ccc(OC(=O)N4CCC(N5CCCCC5)CC4)cc13)-c1cc3c(c(=O)n1C2)COC(=O)[C@]3(O)CC.O=[N+]([O-])O [Nitric acid addition salt (1), irinotecan nitric acid salt]
- Solution state after storage ([3]; 20 mg/mL aqueous solution): −
- Solution state after storage ([3]; 30 mg/mL aqueous solution): −
- Solution state after storage ([3]; 40 mg/mL aqueous solution): +

SMILES: CCc1c2c(nc3ccc(OC(=O)N4CCC(N5CCCCC5)CC4)cc13)-c1cc3c(c(=O)n1C2)COC(=O)[C@]3(O)CC [Irinotecan maleic acid addition salt, irinotecan maleic acid salt]
- Dissolution of the salt in water at room temperature ([1]; listed as maleic acid): dissolved in water at room temperature

SMILES: CCc1c2c(nc3ccc(OC(=O)N4CCC(N5CCCCC5)CC4)cc13)-c1cc3c(c(=O)n1C2)COC(=O)[C@]3(O)CC [Irinotecan sulfuric acid addition salt, irinotecan sulfuric acid salt]
- concentration at 10 min ([4]; male, beagle, dog, plasma, oral, 10 mg/kg, peroral capsule, 10 mg/kg as irinotecan, 10 min after administration, mean (n=6) ± SD): 126 ± 112 ng/mL
- concentration at 20 min ([4]; male, beagle, dog, plasma, oral, 10 mg/kg, peroral capsule, 10 mg/kg as irinotecan, 20 min after administration, mean (n=6) ± SD): 1560 ± 1550 ng/mL
- concentration at 20 min ([4]; male, beagle, dog, plasma, oral, 10 mg/kg, peroral, 10 mg/kg as irinotecan, twenty minutes after administration): 1560 ng/mL
- BA (bioavailability) ([4]; peroral 10 mg/kg as irinotecan, AUC0-inf oral ÷ AUC0-inf intravenous × 100): 70.14%
- Time after administration at which the plasma level became measurable [4, 6]: 10 min
- Plasma irinotecan level maintained ([4]; peroral, 10 mg/kg as irinotecan, from hour 1 to hour 3): ≥ 3 µg/mL
- AUC0-inf (area under time-level curve to infinite time) [4, 7]: 18.54 ± 1.59(5)^$ μg · h/mL
- Tmax (time to reach maximum plasma level) [4, 7]: 2.33 ± 0.52(6) h
- AUC0-inf (area under time-level curve to infinite time) [4, 9]: 13.54 µg·h/mL
- Cmax (maximum plasma level) [4, 9]: 3670 ng/mL
- State of the Solution after Day 6 [1]: No crystal deposited
- Dissolution of the salt in water at room temperature [1]: dissolved in water at room temperature

SMILES: CCc1c2c(nc3ccc(OC(=O)N4CCC(N5CCCCC5)CC4)cc13)-c1cc3c(c(=O)n1C2)COC(=O)[C@]3(O)CC [irinotecan methanesulfonic acid salt]
- bioavailability ([4]; male, beagle, dog, plasma, po, 10 mg/kg, peroral 10 mg/kg as irinotecan, AUC0-inf oral ÷ AUC0-inf intravenous × 100, read-out: BA (bioavailability)): 61 ± 3.84%

SMILES: CCc1c2c(nc3ccc(OC(=O)N4CCC(N5CCCCC5)CC4)cc13)-c1cc3c(c(=O)n1C2)COC(=O)[C@]3(O)CC [Irinotecan fumaric acid addition salt, reference compound]
- Dissolution of the salt in water at room temperature ([1]; listed as fumaric acid): not dissolved in water at room temperature
